From patent publication US20210301349A1, “COMPOSITIONS AND METHODS FOR TREATING A TUMOR SUPPRESSOR DEFICIENT CANCER” (BETH ISRAEL DEACONESS MEDICAL CENTER, INC., priority 2016, published 2021)

What was measured:
NFκB signaling = test: Western blot and expression analysis of Pten^pc−/−; Zbtb7a^pc−/− tumors treated with CXCR2 antagonist; assay type: in vivo, mouse; conditions: versus vehicle
Procedure: (§1) Mice were allocated at random to experimental groups and studies were performed in an unblended manner. For treatment with the CXCR2 antagonist, SB225002 (Cayman Chemical #13336) was dissolved in DMSO (10 mg/ml) and diluted in vehicle (0.9% NaCl, 0.3% Tween 80) for in vivo administration. Mice (4 months of age) were treated daily for 10 days by intraperitoneal injection (5 mg/kg) and prostate tumor tissue (anterior lobes) was subjected to Flow Cytometry and histological analysis. For MRI analysis, mice (4 months of age) were treated daily for 21 days (Pten^pc−/−; Zbtb7a^pc−/−), for 14 days (Pten^pc−/−; Trp53^pc−/−) or for 14 days (Pten^pc−/−; Pml^pc−/−) by intraperitoneal injection (5 mg/kg). […] Tumor volume quantification was performed by using VivoQuant and Image J software. […]
(§2) For western blotting, cell lysates were prepared by homogenizing tumor tissue with NP40 Buffer (Boston Bioproducts) supplemented with protease (Roche) and HALT phosphatase inhibitor cocktails (Thermo Scientific) and subsequently subjected to SDS-Gel separation (Invitrogen) and western blotting. […] Western blots were quantified using Image J software. […] Embedding and hematoxylin and eosin staining of sections were performed by the Histology Core at BIDMC and analyzed by a pathologist. […]

[1] = system: Pten^pc−/−; Trp53^pc−/− tumors (anterior prostate lobes); test: Histological analysis of treated Pten^pc−/−; Trp53^pc−/− tumors; assay type: in vivo, mouse; conditions: Trp53^pc−/− mice, 10 days of i.p. treatment, versus vehicle
Procedure: as §1, §2

Structure (SMILES): O=C(Nc1ccc([N+](=O)[O-])cc1O)Nc1ccccc1Br [SB225002]
- expression of CXCL5 (NFκB signaling; Pten^pc−/−, Zbtb7a^pc−/− prostate tumors): elevated expression of CXCL5
- IκBα protein level (normalized with β-actin) (NFκB signaling; western blot of Pten^pc−/−, Zbtb7a^pc−/− tumors): increased IκBα protein levels
- tumor burden by histological analysis [1]: reduced tumor burden
- tumor burden by histological analysis ([1]; listed as CXCR2 inhibitor): significantly diminished tumor involvement
